Earlier results, collected in patent US20220265629A1, “TREATMENT OF SYSTOLIC DYSFUNCTION AND HEART FAILURE WITH REDUCED EJECTION FRACTION WITH THE COMPOUND (R)-4-(1-((3-(DIFLUOROMETHYL)-1-METHYL-1H-PYRAZOL-4-YL)SULFONYL)-1-FLUOROETHYL)-N-(ISOXAZOL-3-YL)PIPERIDINE-1-CARBOXAMIDE” (MyoKardia, Inc., priority 2019, published 2022).

Legend:
HFrEF = conditions: Teerlink et al.; cited from earlier work
healthy volunteers = conditions: correlated with increase in SET; cited from earlier work

COC(=O)N1CCN(Cc2cccc(NC(=O)Nc3ccc(C)nc3)c2F)CC1 [omecamtiv mecarbil]
troponin (HFrEF): Mild troponin elevation | ischemia at high doses (healthy volunteers): resulted in ischemia
